The source of these data is patent publication US6222043A, “Methods of preparing novel dipeptide compounds or pharmaceutically acceptable salts thereof” (Japan Energy Corporation, priority 1995, dated 2001).

The data set in a line: Pharmacokinetics in rats, intravenous or intraduodenal administration. It is filed as in vivo. The settings on record: rat. The protocol: Metabolic characteristics of the dipeptide compounds of the present invention was evaluated using rats. Tested compounds dissolved in vehicle was administered intraduodenally or intravenously. After administration, blood was taken and the concentration of residual tested compound in plasma was analyzed. The dosage of the tested compound was described in table 3.

As usually defined, the MRT is a mean duration of stay, worked out from the concentration-time curve. As to `Cc1c(O)cccc1C(=O)N[C@@H](Cc1ccccc1)[C@H](O)C(=O)N1CSC(C)(C)[C@H]1C(=O)NC(C)(C)C` [Compound of example 22, (R)-N-tert-butyl-3-[(2S,3S)-2-hydroxy-3-[3-hydroxy-2-methylbenzoyl]amino-4-phenylbutanoyl]-5,5-dimethyl-1,3-thiazolidine-4-carboxamide], where the note is “i.d., 20.0 mg/kg”, the AUC worked out at 106 µg/mL/min and the “F (bioavailability on intraduodenal administration)” value was found to be 47.53%. For the setting “i.v., 10.0 mg/kg”, the AUC turned out to be 111 µg/mL/min, the mean residence time (MRT) was 22.9 min and the “t1/2 (λ)” value is listed as 23.89 min.
As to `CCc1c(O)cccc1C(=O)N[C@@H](Cc1ccccc1)[C@H](O)C(=O)N1CSC(C)(C)[C@H]1C(=O)NC(C)(C)C` [Compound of example 36, (R)-N-tert-butyl-3-[(2S,3S)-3-(2-ethyl-3-hydroxybenzoyl)amino-2-hydroxy-4-phenylbutanoyl]-5,5-dimethyl-1,3-thiazolidine-4-carboxamide], under “i.d., 10.0 mg/kg”, the AUC was 64 µg/mL/min and the “F (bioavailability on intraduodenal administration)” value was 37.01%. Under “i.v., 10.0 mg/kg”, the AUC was 174 µg/mL/min, the MRT came out at 88.9 min and the “t1/2 (λ)” value was 83.90 min.
The matching figures for `CCc1c(O)cccc1C(=O)N[C@@H](Cc1ccccc1)[C@H](O)C(=O)N1CSC[C@H]1C(=O)NC(C)(C)C` [Compound of example 31, (R)-N-tert-butyl-3-[(2S,3S)-2-hydroxy-3-(2-ethyl-3-hydroxybenzoyl)amino-4-phenylbutanoyl]-1,3-thiazolidine-4-carboxamide]: 99 µg/mL/min, 36.24%, 276 µg/mL/min, 96.0 min and 73.81 min.
For the compound `Cc1ccccc1CNC(=O)[C@H]1N(C(=O)[C@@H](O)[C@H](Cc2ccccc2)NC(=O)c2cccc(O)c2C)CSC1(C)C` [Compound of example 37, (R)-N-(2-methylbenzyl)-3-[(2S,3S)-3-(3-hydroxy-2-methylbenzoyl)amino-2-hydroxy-4-phenylbutanoyl]-5,5-dimethyl-1,3-thiazolidine-4-carboxamide], for the setting “i.d., 10.0 mg/kg”, the AUC was 55 µg/mL/min and the “F (bioavailability on intraduodenal administration)” value is on record as 41.55%. Further, for the setting “i.v., 10.0 mg/kg”, the AUC was 131 µg/mL/min, the MRT is given as 74.7 min and the “t1/2 (λ)” value is listed as 92.63 min.
The like results for `Cc1ccccc1CNC(=O)[C@@H]1CSCN1C(=O)[C@@H](O)[C@H](Cc1ccccc1)NC(=O)c1cccc(O)c1C` [Compound of example 34, (R)-N-(2-methylbenzyl)-3-[(2S,3S)-3-(3-hydroxy-2-methylbenzoyl)amino-2-hydroxy-4-phenylbutanoyl]-1,3-thiazolidine-4-carboxamide] were, in that order, 40 µg/mL/min, 32.26%, 124 µg/mL/min, 31.9 min and 40.51 min.
Consider `Cc1c(O)cccc1C(=O)N[C@@H](Cc1ccccc1)[C@H](O)C(=O)N1CSC[C@H]1C(=O)NC(C)(C)C` [Compound of example 21, (R)-N-tert-butyl-3-[(2S,3S)-2-hydroxy-3-[3-hydroxy-2-methylbenzoyl]amino-4-phenylbutanoyl]-1,3-thiazolidine-4-carboxamide], for which, for the setting “i.d., 20.0 mg/kg”, the AUC turned out to be 101 µg/mL/min and the “F (bioavailability on intraduodenal administration)” value turned out to be 45.41%. In addition, for the setting “i.v., 10.0 mg/kg”, the AUC stood at 111 µg/mL/min, the MRT came to 31.7 min and the “t1/2 (λ)” value is recorded as 35.98 min.
Take `CSC[C@H](NC(=O)COc1cccc2cnccc12)C(=O)N[C@@H](Cc1ccccc1)[C@H](O)C(=O)N1CSC[C@H]1C(=O)NC(C)(C)C` [KNI-272, (R)-3-[(2S,3S)-3-(N-(isoquinoline-5-yloxy)acetylmethylthio-L-alanyl)amino-2-hydroxy-4-phenylbutanoyl]1,3-thiazolidine-4-N'-t-butylcarboxamide, reference compound]: where the note is “i.d., 10.0 mg/kg”, the AUC is 98 µg/mL/min and the “F (bioavailability on intraduodenal administration)” value is listed as 43.20%. In addition, where the note is “i.v., 10.0 mg/kg”, the AUC was determined as 224 µg/mL/min, the mean residence time (MRT) worked out at 23.2 min and the “t1/2 (λ)” value was determined as 25.57 min.
